Test results from article PMC11613437, “Prioritization of Eleven-Nineteen-Leukemia Inhibitors as Orally Available Drug Candidates for Acute Myeloid Leukemia” (Journal of Medicinal Chemistry, 2024).
Like-named read-outs stand apart in the source and are kept apart here.

Experiments:
[1] = Log D at pH 7.4 (chromatographic procedure); format: physicochemical; conditions: n-octanol / aqueous buffer pH 7.4, pH 7.4
Method: Log D at 7.4, which is a partition coefficient between n-octanol and aqueous buffer pH 7.4 of the compounds was measured on the chromatographic procedure whose condition was developed based on a published method.[35]

ENL YEATS = molecular target: T1, ENL YEATS (Homo sapiens, UniProt Q03111); test: AlphaScreen assay with biotinylated ENL-S1 peptide; conditions: inhibition of ENL YEATS binding to ENL-S1 peptide; mean ± SD, n = 3; read-out: Alpha IC50 (nM) for ENL YEATS
T1 construct: final concentrations of 100 nM His-ENL YEATS, 100 nM Biotin-ENL-S1
T1 sequence (Q03111 1-138 limits assumed): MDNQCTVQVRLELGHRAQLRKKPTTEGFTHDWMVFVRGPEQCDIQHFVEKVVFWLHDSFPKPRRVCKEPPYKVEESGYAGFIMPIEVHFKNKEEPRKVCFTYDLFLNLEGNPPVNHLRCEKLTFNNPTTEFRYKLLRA
Method: The AlphaScreen assay was carried out in 384-well plates. Manual assay setup was performed in a 40 μL reaction buffer (50 mM HEPES pH 7.4, 100 mM NaCl, 0.1% bovine serum albumin, and 0.05% CHAPS) with final concentrations of 100 nM His-ENL YEATS, 100 nM Biotin-ENL-S1, and 20 μg/mL of AlphaScreen donor and acceptor beads. The protein, peptide, and compounds were mixed and incubated for 1 h at room temperature and then incubated for 30 min in dark after adding the α beads. AlphaScreen-signals were detected by a multimode microplate reader (BioTeK Synergy Neo2) equipped with an Alpha-laser (PerkinElmer).

[2] = Cell toxicity assay (CCK-8), MV4-11; format: cell-based; conditions: human, MV4-11 cells, 8 day treatment, n = 3; read-out: CC50 MV4-11 (Cellular IC50, 8-days incubation)
Method: (§1) Approximately 1 × 10^4 JURKAT, MOLM-13, MV4-11 and HEK293T cells in RPMI 1640 (no phenol red) (100 μL) were added to a 96-well plate and treated with DMSO or a compound at indicated concentrations for 72 h or 8 days. Cell viability was measured using the CCK-8 kit (Abcam, ab228554) according to the manufacturer’s instructions.

[3] = Cell toxicity assay (CCK-8), MOLM-13; format: cell-based; conditions: human, MOLM-13 cells, 8 day treatment, n = 3; read-out: CC50 MOLM-13 (Cellular IC50, 8-days incubation)
Method: as §1

[4] = tested on: HOXA9, HOXA10, MEIS1, MYB and MYC; test: qRT-PCR of ENL target genes; format: cell-based; conditions: MOLM-13 and MV4-11 cells, 72 h, concentrations as low as 1.0 μM
Method: Total RNA was extracted using the RNeasy plus kit (Qiagen, 74034) and reverse-transcribed using an iScript cDNA synthesis kit (Bio-Rad, 1708890). Quantitative real-time PCR (qRT-PCR) analyses were performed as described previously using PowerUp SYBR Green PCR Master Mix (Thermo Fisher, A25742) and the Bio-Rad CFX96 real-time PCR detection system. Gene expressions were calculated following normalization to β2-microglobulin (B2M) levels using the comparative Ct (cycle threshold) method. The primer pairs are as follows. HOXA9: forward 5′-GTATAG-[…]-3′, reverse 5′-[…]-3′. MEIS1: forward 5′-[…]-3′, reverse 5′ […]-AGCAAG-3′. MYB: forward 5′-[…]-3′, reverse 5′-[…]-3′, MYC: forward 5′-[…]-AGGT-3′, reverse 5′-TTT-[…]-3′. B2M: forward 5′-[…]-3′ reverse 5′-[…]-3′.

MOLM-13-Luc cells = test: Antitumor analysis in MOLM-13-Luc xenografted NSG mice; format: in vivo
Text: Animal studies were approved by the Texas A&M’s Institutional Animal Care and Use Committees. The 5 week-old female NSG mice (NOD.Cg-PrkdcscidIl2rgtm1Wjl/SzJ, Jackson Laboratory #005557) were ordered and kept under pathogen-free conditions for 1 week with free access to food and water after arrival for acclimation. Tumor models in these mice were then built by engrafting 1 × 10^6 MOLM-13-Luc cells (BPS Bioscience, 78372) through tail vein injection. Tumors were allowed to grow for 6 days, and then applied for treatment by oral gavage daily (day 0 was the beginning of treatment). Dosage of 200 or 400 mg/kg (vehicle of 5% DMSO, 45% PEG400, 2.5% Tween 80, and 47.5% water) was applied. Tumor growth was evaluated by bioluminescent imaging (BLI) using an IVIS In Vivo Imaging System by intraperitoneal injection of 150 mg/kg D-Luciferin potassium salt (MedChemExpress, HY-12591B). Their body weights were recorded every 2–3 days. Surviving mice were counted every day and the mortality was calculated. No animal was excluded from any of the analyses. The investigators were not blinded to allocation during experiments and outcome assessment.

PK analysis in mice = format: in vivo; conditions: plasma; for half-life at 24 h: read-out: t1/2 (h), PO (converted)
Method: Male CD-1 mice were used in the PK study. A compound was dissolved in a mixed solution containing 75% PEG300 and 25% D5W (5% dextrose in distilled water) or another solution containing 0.5% methyl cellulose and 0.5% Tween 80 in water at indicated dosage for i.v. and p.o. administrations, respectively. Three mice were used for each administration. Blood samples were taken from a vein at different time points up to 24 h after dosing, collected in tubes coated with an anticoagulant, and centrifuged at 1.5 × 10^4 g for 5 min to obtain plasma samples. Acetonitrile-containing internal standard (Labetalol, 100 ng/mL) was added to the plasma to precipitate proteins. The samples were subjected to vortex mixing for 10 min and then centrifugation at 4 °C for 15 min at 3220g. Then clear supernatants were analyzed by HPLC-MS/MS.

MOLM-13 cells = test: Anti-proliferation assay, MOLM-13; format: cell-based; conditions: Homo sapiens, MOLM-13, 336 h, approximately 2 weeks, read-out: inhibition of MOLM-13 cell proliferation
Method: Cell proliferation assays were carried out in a 96-well tissue culture plate at 2 × 10^4 cells/well for all cell lines except in 200 μL with a compound added as 1:1000 dilution of DMSO stocks in triplicate. Culture density was determined every 3–4 days using the countess automated cell counter, after which 2 × 10^4 live cells were reseeded in fresh media and compound. The cumulative cell count was achieved by back calculation.

[5] = Cell toxicity assay (CCK-8), HEK293T; format: cell-based; conditions: human, HEK293T cells; 72 h (3-days) treatment, n = 3; read-out: CC50 HEK293T (Cellular IC50, 3-days incubation)
Method: as §1

[6] = mouse, male CD-1 mice, PO 20 mg/kg, read-out: AUC0–inf, oral
[7] = mouse, male CD-1 mice, PO 20 mg/kg

| Compound | chromatographic logD [1] | IC50 (ENL YEATS) [nM] | IC50 at 8 days [2] [nM] | IC50 at 8 days [3] [nM] | expression of ENL target genes [4] | half-life at 24 h (PK analysis in mice; [7]) [h] | inhibition at 1 µM (MOLM-13 cells) [%] | IC50 at 72 h [5] [nM] | further results |
| --- | --- | --- | --- | --- | --- | --- | --- | --- | --- |
| CC(C)[C@H]1CCN1Cc1cc2cnc(NC(=O)c3ccc4nncn4c3)cc2[nH]1 [SR-C-107 (R), (R)-N-(2-((2-Isopropylazetidin-1-yl)methyl)-1H-pyrrolo[3,2-c]pyridin-6-yl)-[1,2,4]triazolo[4,3-a]pyridine-6-carboxamide] | 0.97 | 40 | 810 ± 150 | 1250 ± 180 | effectively suppress the expression of these genes | 1.41 | ~90 | > 64000 | tumor growth inhibition (TGI) (MOLM-13-Luc cells; 200 mg/kg PO QD, after 8 days of treatment): 49.5%; tumor growth inhibition (TGI) (MOLM-13-Luc cells; 200 mg/kg PO QD, day 12): 45%; median survival time (MOLM-13-Luc cells; 200 mg/kg PO QD, vehicle 10): 15 days post-treatment; Cmax (PK analysis in mice; male, CD-1, mouse, mice, PO 20 mg/kg, corresponds to 285 ng/mL, read-out: oral Cmax expressed as effective concentration): 750 nM; AUC(0-inf) (PK analysis in mice; [6]): 808 ng·h/mL; Cmax (PK analysis in mice; mouse, male CD-1 mice, PO 20 mg/kg, read-out: Cmax, oral): 285 ng/mL |
| CC(C)C1CCN1Cc1ccc(CNC(=O)c2ccc3nncn3c2)cc1 (stereo not drawn) [inhibitor 13] | 0.31 | 1260 ± 128 | 6720 | 6060 | effectively suppress the expression of these genes | 0.84 | 30 | > 64000 | tumor reduction (MOLM-13-Luc cells; 200 mg/kg PO QD): no noticeable tumor reduction; increase in median survival (MOLM-13-Luc cells; 400 mg/kg PO QD vs control): 33.3%; tumor growth inhibition (TGI) (MOLM-13-Luc cells; 400 mg/kg PO QD, after 13 days of treatment, vs control): ~45%; median survival (MOLM-13-Luc cells; 400 mg/kg PO QD, control 15): 20 post-treatment days; half-life (PK analysis in mice; mouse, male CD-1 mice, IV 20 mg/kg, read-out: t1/2, IV (converted)): 1.05 ± 0.03 h; Cmax at 24 h (PK analysis in mice; [7]): 2080 ng/mL; AUC(0-inf) at 24 h (PK analysis in mice; [6]): 5140 ng·h/mL; inhibition at 10 µM (MOLM-13 cells; 10 μM): 85% |
